In ChEMBL document CHEMBL1201862, “PubChem BioAssay data set” (2004):
Where a name gives a salt, the structure may show the parent alone. Calls of active or inactive are those of the source.

Legend:
Caspase-3 = target: T1, Caspase-3 (Homo sapiens, UniProt P42574); type: functional;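 also: Dose-response selectivity test against caspase-3 for candidate inhibitors of sentrin-specific proteases (SENPs)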
T1 sequence (P42574 whole entry): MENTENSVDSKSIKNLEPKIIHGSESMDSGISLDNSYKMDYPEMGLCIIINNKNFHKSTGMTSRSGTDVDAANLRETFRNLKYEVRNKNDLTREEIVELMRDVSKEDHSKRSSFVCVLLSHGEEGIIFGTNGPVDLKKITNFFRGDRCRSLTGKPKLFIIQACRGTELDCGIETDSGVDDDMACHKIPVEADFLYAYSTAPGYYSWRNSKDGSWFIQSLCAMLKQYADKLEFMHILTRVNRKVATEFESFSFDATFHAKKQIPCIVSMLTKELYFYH

[1] = target: T2, Sentrin-specific protease 7 (Homo sapiens, UniProt Q9BQF6); type: functional;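 also: Luminescence-based dose-response confirmation of ultra-high-throughput screening hits, measuring inhibition of SENP7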
T2 sequence (Q9BQF6 whole entry): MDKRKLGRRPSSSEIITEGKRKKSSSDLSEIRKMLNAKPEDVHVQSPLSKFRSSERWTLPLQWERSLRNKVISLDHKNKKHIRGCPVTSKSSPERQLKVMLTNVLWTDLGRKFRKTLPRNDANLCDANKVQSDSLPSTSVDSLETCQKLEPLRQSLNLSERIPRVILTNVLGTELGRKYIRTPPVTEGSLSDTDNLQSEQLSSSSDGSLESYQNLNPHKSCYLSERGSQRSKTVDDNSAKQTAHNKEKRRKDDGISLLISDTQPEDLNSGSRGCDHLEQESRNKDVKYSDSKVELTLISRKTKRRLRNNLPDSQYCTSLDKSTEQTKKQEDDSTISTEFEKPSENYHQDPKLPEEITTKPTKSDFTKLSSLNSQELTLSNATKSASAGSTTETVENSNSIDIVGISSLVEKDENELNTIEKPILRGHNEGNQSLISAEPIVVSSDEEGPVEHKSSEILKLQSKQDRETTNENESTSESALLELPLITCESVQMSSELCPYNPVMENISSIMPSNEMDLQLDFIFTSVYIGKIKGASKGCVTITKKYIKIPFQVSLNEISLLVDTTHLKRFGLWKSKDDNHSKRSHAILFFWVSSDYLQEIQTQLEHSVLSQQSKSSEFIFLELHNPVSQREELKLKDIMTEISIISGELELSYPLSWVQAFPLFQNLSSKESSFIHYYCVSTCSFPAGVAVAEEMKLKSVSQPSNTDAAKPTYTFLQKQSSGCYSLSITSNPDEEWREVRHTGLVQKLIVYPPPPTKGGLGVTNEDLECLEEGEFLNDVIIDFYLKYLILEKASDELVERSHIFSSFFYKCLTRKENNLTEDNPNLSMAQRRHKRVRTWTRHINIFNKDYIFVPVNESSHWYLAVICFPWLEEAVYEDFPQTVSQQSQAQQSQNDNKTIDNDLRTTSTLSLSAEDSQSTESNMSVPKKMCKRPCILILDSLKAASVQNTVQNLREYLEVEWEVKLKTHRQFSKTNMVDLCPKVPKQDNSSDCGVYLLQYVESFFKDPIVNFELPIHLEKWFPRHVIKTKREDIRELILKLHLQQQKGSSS

[2] = target: T3, Sentrin-specific protease 6 (Homo sapiens, UniProt Q9GZR1); type: functional;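 also: Luminescence-based dose-response confirmatory assay of SENP6 inhibition, following up an ultra-high-throughput screen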
T3 sequence (Q9GZR1 whole entry): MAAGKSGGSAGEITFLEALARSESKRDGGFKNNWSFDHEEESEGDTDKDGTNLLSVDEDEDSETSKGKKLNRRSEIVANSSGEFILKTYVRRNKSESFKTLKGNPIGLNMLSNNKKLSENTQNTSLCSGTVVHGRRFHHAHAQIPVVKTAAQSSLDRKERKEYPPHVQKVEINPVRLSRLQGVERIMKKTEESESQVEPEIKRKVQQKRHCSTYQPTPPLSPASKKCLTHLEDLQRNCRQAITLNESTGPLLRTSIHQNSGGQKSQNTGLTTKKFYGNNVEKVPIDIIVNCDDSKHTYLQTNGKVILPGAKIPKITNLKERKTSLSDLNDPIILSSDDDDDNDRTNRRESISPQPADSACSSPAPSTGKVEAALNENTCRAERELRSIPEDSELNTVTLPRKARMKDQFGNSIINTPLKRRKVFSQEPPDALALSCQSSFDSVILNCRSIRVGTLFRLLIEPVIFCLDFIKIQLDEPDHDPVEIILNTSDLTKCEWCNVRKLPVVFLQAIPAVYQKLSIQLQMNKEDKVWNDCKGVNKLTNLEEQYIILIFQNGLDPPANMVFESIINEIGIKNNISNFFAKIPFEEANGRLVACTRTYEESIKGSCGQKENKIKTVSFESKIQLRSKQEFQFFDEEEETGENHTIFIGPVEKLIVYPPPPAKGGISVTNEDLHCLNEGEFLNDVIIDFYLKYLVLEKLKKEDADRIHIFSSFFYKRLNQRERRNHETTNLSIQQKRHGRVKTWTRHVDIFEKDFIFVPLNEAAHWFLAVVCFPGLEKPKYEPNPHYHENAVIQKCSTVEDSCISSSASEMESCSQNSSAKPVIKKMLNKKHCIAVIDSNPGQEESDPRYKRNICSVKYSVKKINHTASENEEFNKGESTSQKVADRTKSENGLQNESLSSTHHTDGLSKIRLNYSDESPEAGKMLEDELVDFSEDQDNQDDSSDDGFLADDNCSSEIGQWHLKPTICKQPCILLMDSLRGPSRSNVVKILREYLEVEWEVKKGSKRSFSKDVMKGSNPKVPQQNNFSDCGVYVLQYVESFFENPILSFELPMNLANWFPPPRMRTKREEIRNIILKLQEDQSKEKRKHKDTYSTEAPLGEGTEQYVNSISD

[3] = target: T4, Sentrin-specific protease 8 (Homo sapiens, UniProt Q96LD8); type: functional;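 also: luminescence read-out of SENP8 inhibition, dose-response confirmation following an ultra-high-throughput screen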
T4 sequence (Q96LD8 whole entry): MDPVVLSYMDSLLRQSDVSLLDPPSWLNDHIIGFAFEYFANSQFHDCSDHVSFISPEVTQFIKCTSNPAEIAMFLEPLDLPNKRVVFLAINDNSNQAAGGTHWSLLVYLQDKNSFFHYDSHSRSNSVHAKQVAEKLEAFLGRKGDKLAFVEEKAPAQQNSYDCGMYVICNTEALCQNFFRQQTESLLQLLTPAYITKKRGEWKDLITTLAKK

[4] = target: Heat shock protein HSP 90-alpha (Homo sapiens, UniProt P07900); type: functional, organism-based
[5] = Shn3 3'UTR reporter inhibitors, dose response, cell-based, Clone20 osteoblasts, firefly luciferase, cherry-picked (AID 624132); type: functional;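 also: firefly luciferase luminescence from reporter carrying the Shn3 3'UTR in osteoblasts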
P388/ADR = experiment: cells; type: functional; conditions: Mus musculus
[6] = HepG2 cell cytotoxicity, dose response, cytotoxicity control for Shn3 inhibitor project, CellTiter-Glo, cherry-picked (AID 624134); type: functional, cell-based
[7] = control 3'UTR Renilla luciferase suppression, dose response, counter-screen for Shn3 inhibitor project, cell-based, Clone20-Shn3RL, cherry-picked (AID 624133); type: functional
SN12K1 = experiment: cells; type: functional; conditions: Homo sapiens
P388 = experiment: cells; type: functional; conditions: Mus musculus
Cysteine protease ATG4B = target: T5, Cysteine protease ATG4B (Homo sapiens, UniProt Q9Y4P1); type: functional;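 also: Fluorescence-based dose-response confirmation assay measuring inhibition of ATG4B activity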
T5 sequence (Q9Y4P1 whole entry): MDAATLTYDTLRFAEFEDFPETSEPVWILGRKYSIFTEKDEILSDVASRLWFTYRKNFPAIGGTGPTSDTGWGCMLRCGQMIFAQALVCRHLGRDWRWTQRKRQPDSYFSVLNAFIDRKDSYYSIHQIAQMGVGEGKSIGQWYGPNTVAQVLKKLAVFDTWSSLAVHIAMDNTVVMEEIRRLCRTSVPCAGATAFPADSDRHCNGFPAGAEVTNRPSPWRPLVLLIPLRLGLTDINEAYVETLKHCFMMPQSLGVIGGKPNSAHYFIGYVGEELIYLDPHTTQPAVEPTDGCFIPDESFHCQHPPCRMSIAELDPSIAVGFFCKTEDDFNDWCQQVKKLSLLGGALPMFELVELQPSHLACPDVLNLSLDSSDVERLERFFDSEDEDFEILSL

Phospholipase A2 = Phospholipase A2 (Homo sapiens, UniProt P04054); type: functional;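 also: confirmatory dose-response counterscreen on phospholipase A2, testing hits that came from an ultra-high-throughput screen for ATG4B inhibitors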
[8] = cytotoxicity in KRAS-transformed pancreatic duct cells, primary screen, cell-based, fluorescence, HTS (AID 431); type: functional; conditions: Homo sapiens;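 also: cell line used: HPDE-C7K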
[9] = Luminescence Cell-Based Dose Retest to Confirm Inhibitors of Cancer Stem Cells. [Related pubchem assays (depositor defined):AID2717, AID2721]; type: functional; conditions: Homo sapiens
[10] = target: T6, Ubiquitin-conjugating enzyme E2 N (Homo sapiens, UniProt P61088); type: functional;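 also: Dose-response confirmation in a TR-FRET assay detecting UBC13-driven polyubiquitin chain formation, inhibition measured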
T6 sequence (P61088 whole entry): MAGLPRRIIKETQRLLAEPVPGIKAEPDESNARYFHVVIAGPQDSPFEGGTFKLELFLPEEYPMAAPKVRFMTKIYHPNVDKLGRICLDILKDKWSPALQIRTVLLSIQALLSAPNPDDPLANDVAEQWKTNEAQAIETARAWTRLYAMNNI

[11] = target: Eukaryotic translation initiation factor 4E (Mus musculus, UniProt P63073); experiment: eIF4E–eIF4G protein interaction inhibitors, dose response, biochemical, TR-FRET (AID 855); type: functional;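 also: potency for disrupting eIF4E binding to eIF4GI seen as loss of FRET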
[12] = target: T7, High affinity choline transporter 1 (Homo sapiens, UniProt Q9GZV3); experiment: CHT inhibitors, dose response, cell-based, 5-point CRC, membrane potential dye (AID 504840); type: functional
T7 sequence (Q9GZV3 whole entry): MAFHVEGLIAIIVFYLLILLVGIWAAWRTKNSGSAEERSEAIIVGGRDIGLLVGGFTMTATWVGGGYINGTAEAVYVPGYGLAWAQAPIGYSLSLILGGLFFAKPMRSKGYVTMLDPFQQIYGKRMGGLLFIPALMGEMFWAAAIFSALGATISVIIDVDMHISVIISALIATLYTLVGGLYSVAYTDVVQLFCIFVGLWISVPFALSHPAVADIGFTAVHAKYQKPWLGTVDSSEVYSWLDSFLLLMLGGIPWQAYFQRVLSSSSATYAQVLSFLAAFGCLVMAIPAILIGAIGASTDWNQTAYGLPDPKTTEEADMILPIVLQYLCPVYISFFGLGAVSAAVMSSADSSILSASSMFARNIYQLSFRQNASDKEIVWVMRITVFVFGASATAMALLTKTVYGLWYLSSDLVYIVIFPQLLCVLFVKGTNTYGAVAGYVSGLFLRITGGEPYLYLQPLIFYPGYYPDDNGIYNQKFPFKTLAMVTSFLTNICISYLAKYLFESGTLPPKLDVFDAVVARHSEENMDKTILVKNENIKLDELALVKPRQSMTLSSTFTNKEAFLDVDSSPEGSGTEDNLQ

[13] = target: T7, High affinity choline transporter 1; experiment: CHT inhibitors, dose response, cell-based, 10-point CRC, membrane potential dye (AID 588401); type: functional;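 also: membrane potential dye fluorescence of choline-evoked depolarization via CHT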
Cytochrome P450 2C9 = Cytochrome P450 2C9 (Homo sapiens, UniProt P11712)
[14] = target: Adenosylmethionine-8-amino-7-oxononanoate aminotransferase (Mycobacterium tuberculosis, UniProt P9WQ81); experiment: Mycobacterium tuberculosis BioA enzyme inhibitor Measured in Biochemical System Using Plate Reader - 2163-02_Inhibitor_Dose_CherryPick_Activity.; type: functional, Mycobacterium tuberculosis UT205
Adenosylmethionine-8-amino-7-oxononanoate aminotransferase, sequence (P9WQ81 whole entry): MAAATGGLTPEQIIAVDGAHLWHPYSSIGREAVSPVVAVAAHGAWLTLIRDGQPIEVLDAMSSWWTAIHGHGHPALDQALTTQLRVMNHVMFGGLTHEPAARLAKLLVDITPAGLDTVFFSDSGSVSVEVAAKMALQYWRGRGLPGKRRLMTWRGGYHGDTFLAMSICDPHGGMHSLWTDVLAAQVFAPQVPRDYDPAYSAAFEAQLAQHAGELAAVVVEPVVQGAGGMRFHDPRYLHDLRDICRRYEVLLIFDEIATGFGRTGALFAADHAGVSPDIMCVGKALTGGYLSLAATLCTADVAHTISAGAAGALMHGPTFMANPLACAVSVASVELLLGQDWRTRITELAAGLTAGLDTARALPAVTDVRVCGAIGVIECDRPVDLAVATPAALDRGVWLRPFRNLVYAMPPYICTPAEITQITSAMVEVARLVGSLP

Phospholipase A2, sequence (P04054 whole entry): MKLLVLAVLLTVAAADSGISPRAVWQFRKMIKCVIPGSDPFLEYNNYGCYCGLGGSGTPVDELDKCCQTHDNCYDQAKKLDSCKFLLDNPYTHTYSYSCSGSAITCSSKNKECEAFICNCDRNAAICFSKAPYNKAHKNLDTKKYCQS
Cytochrome P450 2C9, sequence (P11712 whole entry): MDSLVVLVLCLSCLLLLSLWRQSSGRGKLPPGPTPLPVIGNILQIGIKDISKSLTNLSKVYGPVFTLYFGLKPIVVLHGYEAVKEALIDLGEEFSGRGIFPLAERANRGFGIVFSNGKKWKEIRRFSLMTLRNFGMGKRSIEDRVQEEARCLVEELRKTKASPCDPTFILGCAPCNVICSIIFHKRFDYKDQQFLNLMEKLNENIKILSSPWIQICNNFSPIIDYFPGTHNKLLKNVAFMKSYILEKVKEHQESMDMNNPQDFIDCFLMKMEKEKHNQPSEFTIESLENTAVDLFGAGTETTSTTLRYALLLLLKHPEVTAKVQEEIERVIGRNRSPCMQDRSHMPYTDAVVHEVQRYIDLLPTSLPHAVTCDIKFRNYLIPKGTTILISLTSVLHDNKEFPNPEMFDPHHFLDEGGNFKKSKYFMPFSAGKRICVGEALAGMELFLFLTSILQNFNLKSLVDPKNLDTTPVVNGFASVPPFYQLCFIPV
Eukaryotic translation initiation factor 4E, sequence (P63073 whole entry): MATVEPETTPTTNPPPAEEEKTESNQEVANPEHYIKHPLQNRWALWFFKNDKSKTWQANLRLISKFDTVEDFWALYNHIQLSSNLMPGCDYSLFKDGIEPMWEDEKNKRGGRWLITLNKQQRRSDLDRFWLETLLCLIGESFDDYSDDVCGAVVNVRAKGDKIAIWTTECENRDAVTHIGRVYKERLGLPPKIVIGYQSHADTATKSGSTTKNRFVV

O=C(COC(=O)c1ccc([N+](=O)[O-])s1)NCc1ccccc1
IC50 (Caspase-3): 23.4 µM (active) | IC50 [1]: 19.1 µM (active) | IC50 [2]: 12.8 µM (active) | IC50 [3]: 12.9 µM (active)

CCCCCCCCOC(=O)c1cc([N+](=O)[O-])c(Sc2[nH]cnc3ncnc2-3)c([N+](=O)[O-])c1
AC50 [4]: 2.18 µM (active) | AC50 [5]: 2.81 µM (active) | GI50 (P388/ADR): 0.152 µM (active) | AC50 [6]: 11.5 µM (active) | AC50 [7]: 10.6 µM (active) | GI50 (SN12K1): 0.912 µM (active) | GI50 (P388): 0.184 µM (active)

Cc1noc(C)c1COc1ccc(C(=O)OCC(=O)NCc2ccccc2Cl)cc1
IC50 (Cysteine protease ATG4B): 22.5 µM (inactive) | IC50 (Phospholipase A2): 6.59 µM (active)

CCCCc1oc2ccccc2c1C(=O)c1cc(I)c(OCCN(CC)CC)c(I)c1 [AMIODARONE HYDROCHLORIDE]
EC50 [8]: 7.82 µM (active) | AC50 [9]: 4.87 µM (active) | IC50 [10]: > 20 µM (inactive) | GI50 (SN12K1): 3.77 µM (inactive) | GI50 (P388): 5.06 µM (inactive)

O=c1[nH]ncc(N2CCCC2)c1Cl
IC50 [11]: 50 µM (inactive) | IC50 [12]: 8.71 µM (active) | IC50 [13]: 7.51 µM (active)

NC(=O)c1ccc(-c2ncc(-c3ccccc3)o2)cc1
IC50 (Caspase-3): 13.1 µM (active) | IC50 [1]: 6.11 µM (active) | IC50 [2]: 33.9 µM (active) | IC50 [3]: 51.7 µM (active) | AC50 (Cytochrome P450 2C9): 2.51 µM (inconclusive)

CCn1cnc2sc(-c3ccccc3)cc2c1=O
IC50 (Caspase-3): 12.5 µM (active) | IC50 [1]: 9.66 µM (active) | IC50 [2]: 32.2 µM (active) | IC50 [3]: 43.8 µM (active)

CCC(Sc1nc2ccsc2c(=O)n1Cc1ccc(C(=O)O)cc1)C(=O)Nc1cccc(OC)c1 (stereo unspecified)
AC50 [14]: 4.08 µM (active)

NC(=O)/C(=C\c1ccccc1)NC(=O)/C=C/c1ccccc1
IC50 (Cysteine protease ATG4B): 19.1 µM (active) | IC50 (Phospholipase A2): 15.5 µM (active)

CCCCCCCC(=O)O[C@H]1[C@H]2[C@@H](CC1(C)C)C(=O)[C@]13O[C@H]1C(=O)[C@]1(CO1)[C@]23C
GI50 (P388/ADR): 0.1 µM (active) | GI50 (SN12K1): 3.33 µM (inactive) | GI50 (P388): 0.0904 µM (active)

C[C@@H](C(=O)N1CCN(Cc2ccc3c(c2)OCO3)CC1)n1nnc2ccccc2c1=O
AC50 [14]: 4.11 µM (active)

O=C(Nc1ccccc1N1CCN(c2ccccc2)CC1)c1ccccc1
IC50 (Cysteine protease ATG4B): 9.27 µM (active) | IC50 (Phospholipase A2): 6.48 µM (active)

O=[N+]([O-])c1ccc(Sc2ncc3ccccn23)nc1
IC50 [12]: 3.9 µM (active) | IC50 [13]: 1.13 µM (active)
